Measured values as given in patent US20250295711A1, “FOOD SUPPLEMENT” (FONTERRA CO-OPERATIVE GROUP LIMITED, priority 2022, published 2025).
Marks after values point to notes of the source that are not given here.

Key:
CUMS rats [1] = experiment: Open field test in CUMS (chronic unpredictable mild stress) rats; assay type: in vivo, rat; details: for Total Distance Travelled in Open Field Test, After CUMS only (x ± S): after 40 days CUMS; for Total Distance Travelled in Open Field Test, After CUMS only (x ± S) / Vertical Movement (Number of Times Standing Up) in Open Field Test, After CUMS (x ± S): before intervention; for Vertical Movement (Number of Times Standing Up) in Open Field Test, After intervention (x ± S): after CUMS with intervention; for Total Distance Travelled in Open Field Test, After CUMS + intervention (x ± S): after further 40 days CUMS with intervention; for Total Distance Travelled in Open Field Test, Base line (x ± S) / Vertical Movement (Number of Times Standing Up) in Open Field Test, Base line (x ± S): before CUMS and before intervention
Description: (§1) A series of experiments were conducted using the chronic unpredictable mild stress (CUMS) rodent model. Rats were exposed daily to any two of the following mild physiological stresses selected at random: • 12 hours of water deprivation • 12 hours of food deprivation • 8 hours of damp sawdust • 24 hours of reversed light/dark cycle • 2 minutes of tail pinching • 1 hour of 60 Hz noise • 15 minutes of cage shaking • Swimming in 4° C. water for 5-10 minutes • 2 hours of restraining.
(§2) Six groups of rats were assessed: • 1. Control rats: rats raised normally without stress treatments and without nutritional or drug interventions. • 2. CUMS rats: rats subjected to the CUMS protocol but without nutritional or drug interventions. • 3. CUMS HN001: rats subjected to the CUMS protocol and given HN001. • 4. CUMS HN019: rats subjected to the CUMS protocol and given HN019. • 5. CUMS HN001+HN019: rats subjected to the CUMS protocol given both HN001 and HN019. • 6.
(§3) Baseline assessments were then conducted, including blood collection. For the next 40 days, rats in groups 2-6 were exposed to CUMS treatments to induce depression symptoms associated with stress and anxiety.
(§4) Tests were then carried out to assess rat behaviours, such as the open field test and the elevated maze test (see FIG. 2). These are standard ways to measure rat stress and anxiety traits.

[2] = Body weight gain of CUMS rats; assay type: in vivo, rat; details: FIG. 3
Description: as §1, §2, §3
The reduced weight gain in rats exposed to CUMS was improved by administration of HN001, HN019, or both (FIG. 3). Also, there were no differences in weight gain between CUMS groups.

intestinal microbiota = experiment: 16S rRNA sequencing of faecal samples (gut microbiota) of CUMS rats; assay type: in vivo, rat; details: for CUMS-induced alterations of relative abundance at phylum level: Firmicutes, Bacteroidetes, Verrucomicrobias, Proteobacterias, Actinobacterias; for CUMS-induced changes at genus level: Lactobacillus, Eubacterium coprostanoligenes group, Lachnospiraceae-NK4A136-group; for CUMS-induced changes of relative abundance at family level: Ruminococcaceae, Lactobacillaceae, Lachnospiraceae; for Sobs, ACE, Chao1 and Shannon index (alpha-diversity): compared with CUMS group, FIG. 9; for Beta diversity, PCoA plot: in comparison with CUMS rats, FIG. 10A; for Firmicutes to Bacteroidetes ratio (F/B ratio): increased after CUMS stimulation
Description: To evaluate whether probiotics, as well as CUMS, alter intestinal microbiota, 16S rRNA sequencing of faecal samples was performed. Alpha-diversity, as measured by richness (Sobs index, Chao1 index and ACE index; see FIGS. […]), and diversity (Shannon index; see FIG. 9 D), was decreased after CUMS. Beta diversity analysis was evaluated through PCoA to assess differences in microbial composition among six groups (FIG. 10A).

IL-6 = IL-6 content in serum, brain and colon of CUMS rats; assay type: in vivo, rat; details: for IL-6 Content, Brain / IL-6 Content, Colon: end of experiment; for IL-6 Content, serum-after intervention: after CUMS with intervention; for IL-6 Content, serum-after CUMS: before intervention
Description: as §1, §2, §3
(§5) A series of blood markers were assessed.

[3] = system: Corticotropin Releasing Hormone (CRH); experiment: Serum corticotropin releasing hormone content in CUMS rats; assay type: in vivo, rat; details: for Serum Corticotropin Releasing Hormone (CRH) Content, After intervention: after CUMS with intervention; for Serum Corticotropin Releasing Hormone (CRH) Content, After CUMS: before intervention
Description: as §1, §2, §3

TNF-α = TNF-α content in serum, brain and colon of CUMS rats; assay type: in vivo, rat; details: for TNF-α Content, Brain / TNF-α Content, Colon: end of experiment; for TNF-α Content, serum-after intervention: after CUMS with intervention; for TNF-α Content, serum-after CUMS: before intervention
Description: as §1, §2, §3, §5

Cortisol = Cortisol (HPA axis) after stress; assay type: in vivo; details: stress induced; no data shown
brain and colon tissue = experiment: HE staining of brain and colon tissues of CUMS rats; assay type: in vivo, rat; details: brain, FIG. 5
Source text: Brain tissues included two regions from the hippocampus (Dentate Gyrus (DG) and CA1) and a region from the cortex (P2).
Brain and colon tissue were stained using the HE method. Brain tissue included two regions from the hippocampus (Dentate Gyrus (DG) and CA1) and a region from the cortex (P2). The results are shown in FIG. 5 and reveal that for the control group, neurons in hippocampal regions (dentate gyrus (DG) and Ca1) and the cortex (P2) were normal, orderly, tightly packed cells. The cells had expected morphology, homogeneous cytoplasmic staining, and no increased interstitial or abnormal changes.
For the colon tissue, control intestinal villi were arranged neatly, with normal cell morphology and no obvious damage was seen.

[4] = system: Adrenocorticotropic Hormone (ACTH); experiment: Serum adrenocorticotropic hormone content in CUMS rats; assay type: in vivo, rat; details: for Serum Adrenocorticotropic Hormone (ACTH) Content, After intervention: after CUMS with intervention; for Serum Adrenocorticotropic Hormone (ACTH) Content, After CUMS: before intervention
Description: as §1, §2, §3

CUMS rats [5] = experiment: Elevated-plus maze test in CUMS rats; assay type: in vivo, rat; details: for Time in Closed Arms in Elevated Plus Maze, After intervention (x ± S) / Total Distance Travelled in Elevated Maze Test, After intervention (x ± S): after CUMS with intervention; for Time in Closed Arms in Elevated Plus Maze, After CUMS (x ± S) / Total Distance Travelled in Elevated Maze Test, After CUMS (x ± S): before intervention; for Time in Closed Arms in Elevated Plus Maze, Base line (x ± S) / Total Distance Travelled in Elevated Maze Test, Base line (x ± S): before CUMS and before intervention
Description: as §1, §2, §3, §4

[6] = system: 5-HT, DA, NE, Glu, GABA, HIAA, DOPAC, HVA; experiment: Neurotransmitters and their metabolites in serum and brain of CUMS rats; assay type: in vivo, rat; details: FIG. 6
Source text: The level of serum and brain 5-HT, DA, NE, Glu and GABA were detected at the end of the experiment (A, B, D, E, G, H, J, K, L). (C), (F) and (I) show the metabolites of monoamine neurotransmitters in brain. The results are presented as the mean±SEM (n=10). #P<0.05 compared with CUMS group.
HIAA, DOPAC and HVA, as the metabolites of 5-HT, DA and NE, were increased in rat brains after CUMS stimulation.

Substance | Total Distance Travelled in Open Field Test, After CUMS only (x ± S) (CUMS rats [1]) | Vertical Movement (Number of Times Standing Up) in Open Field Test, After intervention (x ± S) (CUMS rats [1]) | Vertical Movement (Number of Times Standing Up) in Open Field Test, After CUMS (x ± S) (CUMS rats [1]) | Total Distance Travelled in Open Field Test, After CUMS + intervention (x ± S) (CUMS rats [1]) | Total Distance Travelled in Open Field Test, Base line (x ± S) (CUMS rats [1]) | Vertical Movement (Number of Times Standing Up) in Open Field Test, Base line (x ± S) (CUMS rats [1]) | Reduced weight gain in rats exposed to CUMS [2] | CUMS-induced alterations of relative abundance at phylum level (intestinal microbiota) | CUMS-induced changes at genus level (intestinal microbiota) | CUMS-induced changes of relative abundance at family level (intestinal microbiota) | Sobs, ACE, Chao1 and Shannon index (alpha-diversity) (intestinal microbiota) | Beta diversity, PCoA plot (intestinal microbiota) | Firmicutes to Bacteroidetes ratio (F/B ratio) (intestinal microbiota) | IL-6 Content, Brain (IL-6) | IL-6 Content, Colon (IL-6) | IL-6 Content, serum-after intervention (IL-6) | IL-6 Content, serum-after CUMS (IL-6) | Serum Corticotropin Releasing Hormone (CRH) Content, After intervention [3] | Serum Corticotropin Releasing Hormone (CRH) Content, After CUMS [3] | TNF-α Content, Brain (TNF-α) | also measured
Bifidobacterium animalis subsp. lactis strain HN019 | 5.42 ± 3.11^a Metres | 11.63 ± 4.90^b | 4.50 ± 3.42^a | 12.21 ± 2.54^b Metres | 24.65 ± 3.59 Metres | 19.62 ± 6.80 | improved | alleviated the phylum alterations | improved | reversed the changes of family | decreased | marked differences | decreased the F/B ratio | 19.25 ± 4.78^b pg/ml | 31.88 ± 7.83^b pg/ml | 10.19 ± 4.47^b pg/ml | 13.08 ± 4.30^a pg/ml | 2.47 ± 1.34^b pg/ml | 5.19 ± 3.48^a pg/ml | 60.67 ± 6.65^b pg/ml | TNF-α Content, Colon (TNF-α): 71.34 ± 10.46^b pg/ml; TNF-α Content, serum-after intervention (TNF-α): 12.08 ± 3.68^b pg/ml; TNF-α Content, serum-after CUMS (TNF-α): 23.97 ± 3.69^a pg/ml; Cortisol level (Cortisol): reduced closer to non-stressed control levels; Morphology of hippocampus (DG, CA1) and cortex (P2) (brain and colon tissue): CUMS-associated damage was largely reduced; Serum Adrenocorticotropic Hormone (ACTH) Content, After intervention [4]: 2.13 ± 1.88^b pg/ml; Serum Adrenocorticotropic Hormone (ACTH) Content, After CUMS [4]: 5.53 ± 3.43^a pg/ml; Time in Closed Arms in Elevated Plus Maze, After intervention (x ± S) (CUMS rats [5]): 215.28 ± 17.98^b Seconds; Total Distance Travelled in Elevated Maze Test, After intervention (x ± S) (CUMS rats [5]): 7.91 ± 0.65^b Metres; Time in Closed Arms in Elevated Plus Maze, After CUMS (x ± S) (CUMS rats [5]): 288.83 ± 11.57^a Seconds; Total Distance Travelled in Elevated Maze Test, After CUMS (x ± S) (CUMS rats [5]): 3.08 ± 2.21^a Metres; Time in Closed Arms in Elevated Plus Maze, Base line (x ± S) (CUMS rats [5]): 215.83 ± 23.30 s; Total Distance Travelled in Elevated Maze Test, Base line (x ± S) (CUMS rats [5]): 9.35 ± 1.38 Metres; Effects of CUMS on neurotransmitters (5-HT, DA, NE, Glu, GABA) and metabolites [6]: able to reverse the effects of CUMS
Lactocaseibacillus rhamnosus strain HN001 | 5.64 ± 2.10^a Metres | 13.57 ± 4.39^b | 3.43 ± 2.88^a | 14.62 ± 7.97^b Metres | 23.43 ± 8.42 Metres | 19.67 ± 6.26 | improved | alleviated the phylum alterations | improved | reversed the changes of family | decreased | marked differences | decreased the F/B ratio | 20.44 ± 3.06v pg/ml | 31.56 ± 9.00^b pg/ml | 9.96 ± 4.10^b pg/ml | 14.01 ± 5.98^a pg/ml | 2.38 ± 1.59^b pg/ml | 5.53 ± 2.77^a pg/ml | 61.99 ± 5.17^b pg/ml | TNF-α Content, Colon (TNF-α): 79.89 ± 11.48^b pg/ml; TNF-α Content, serum-after intervention (TNF-α): 12.88 ± 4.62^b pg/ml; TNF-α Content, serum-after CUMS (TNF-α): 21.12 ± 6.40^a pg/ml; Cortisol level (Cortisol): reduced closer to non-stressed control levels; Morphology of hippocampus (DG, CA1) and cortex (P2) (brain and colon tissue): CUMS-associated damage was largely reduced; Serum Adrenocorticotropic Hormone (ACTH) Content, After intervention [4]: 3.12 ± 2.52^b pg/ml; Serum Adrenocorticotropic Hormone (ACTH) Content, After CUMS [4]: 5.85 ± 3.35^a pg/ml; Time in Closed Arms in Elevated Plus Maze, After intervention (x ± S) (CUMS rats [5]): 220.28 ± 11.45^b Seconds; Total Distance Travelled in Elevated Maze Test, After intervention (x ± S) (CUMS rats [5]): 8.61 ± 1.63^b Metres; Time in Closed Arms in Elevated Plus Maze, After CUMS (x ± S) (CUMS rats [5]): 280.00 ± 9.58^a Seconds; Total Distance Travelled in Elevated Maze Test, After CUMS (x ± S) (CUMS rats [5]): 3.17 ± 1.88^a Metres; Time in Closed Arms in Elevated Plus Maze, Base line (x ± S) (CUMS rats [5]): 230.69 ± 23.78 s; Total Distance Travelled in Elevated Maze Test, Base line (x ± S) (CUMS rats [5]): 8.28 ± 0.81 Metres; Effects of CUMS on neurotransmitters (5-HT, DA, NE, Glu, GABA) and metabolites [6]: able to reverse the effects of CUMS
